Test results as given in patent US20260364079A1 (Principia Biopharma Inc., priority 2022, published 2026).

Legend:
[1] = test system: collagen-induced arthritis; test: rat collagen-induced arthritis model; format: in vivo
human B cell = test: in vitro human B cell activation; format: cell-based

**Q.** Which disease reversal [1] does the source give for `CC(C)(C=C(C#N)C(=O)N1CCC[C@@H](n2nc(-c3ccc(Oc4ccccc4)cc3F)c3c(N)ncnc32)C1)N1CCN(C2COC2)CC1` (mixture of isomers) [rilzabrutinib, (R)-2-[3-[4-amino-3-(2-fluoro-4-phenoxy-phenyl)pyrazolo[3,4-d]pyrimidin-1-yl]piperidine-1-carbonyl]-4-methyl-4-[4-(oxetan-3-yl)piperazin-1-yl]pent-2-enenitrile] here?
**A.** full disease reversal

**Q.** What about the “human B cell activation” value (human B cell) of the same molecule?
**A.** profoundly inhibits human B cell activation
